{
  "source": "patent US11642339B2",
  "about": "(THERAVANCE BIOPHARMA R&D IP, LLC, priority 2017, dated 2023)",
  "key": {"[1]": {"tested_on": "subjects with diabetic or idiopathic gastroparesis", "description": "A daily proprietary patient reported outcome (PRO) tool was used to assess GP symptoms, the Gastroparesis Rating Scale (GRS), developed according to the current FDA PRO guidance. The GRS covers the following cardinal symptom domains: (1) nausea, (2) vomiting, (3) postprandial fullness/early satiety, (4) bloating, (5) upper abdominal pain, (6) gastric reflux/burning, and (7) bowel movements. The GRS symptom domains may be also categorized or grouped into Factor 1 (fullness, early satiety, bloating, upper abdominal pain, and epigastric burning) and Factor 2 (nausea and vomiting).\nGRS Factor 1 (also Summary Score 1) comprised fullness/early satiety, bloating, upper abdominal pain, and epigastric burning domains, whereas GRS Factor 2 (also Summary Score 2) comprised nausea and vomiting domains.\nAfter the psychometric evaluation the GRS was summarized using two summary scores: Summary Score 1 combined the fullness/early satiety, bloating, upper abdominal pain, and epigastric burning domains and Summary Score 2 combined the nausea and vomiting domains."}, "[2]": {"tested_on": "subjects with diabetic or idiopathic gastroparesis", "assay": "DIGEST I: responder analysis of GRS Summary Scores;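 also: weekly responder means a clinically relevant symptom change versus baseline, and weeks with missing data (dropouts) count as non-response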", "description": "A weekly responder was defined as a subject who experienced a clinically relevant change in symptoms from baseline.\nGiven these observations, a responder is any subject being a weekly responder for at least 6 of 12 weeks and at least 3 of the last 4 weeks of treatment. Subjects with missing data in the week (drop out) were defined as a non-responder for that week."}, "[3]": {"conditions": "15 mg/day, Week 12, diabetic gastroparesis population"}, "[4]": {"conditions": "15 mg/day, Week 12, idiopathic gastroparesis population"}, "[5]": {"conditions": "30 mg/day, Week 4, diabetic gastroparesis population"}, "[6]": {"conditions": "30 mg/day, Week 4, idiopathic gastroparesis population"}, "[7]": {"conditions": "30 mg/day, Week 8, diabetic gastroparesis population"}, "[8]": {"conditions": "30 mg/day, Week 8, idiopathic gastroparesis population"}, "[9]": {"conditions": "30 mg/day, Week 12, diabetic gastroparesis population"}, "[10]": {"conditions": "30 mg/day, Week 12, idiopathic gastroparesis population"}, "[11]": {"conditions": "5 mg/day, responders for at least 6 of 12 weeks, ITT"}, "[12]": {"conditions": "15 mg/day, at least 6 of 12 weeks and at least 3 weeks of Weeks 9-12, ITT"}, "[13]": {"conditions": "15 mg/day, diabetic gastroparesis population"}, "[14]": {"conditions": "15 mg/day, idiopathic gastroparesis population"}, "[15]": {"conditions": "15 mg/day, responders for at least 6 of 12 weeks, ITT"}, "[16]": {"conditions": "30 mg/day, at least 6 of 12 weeks and at least 3 weeks of Weeks 9-12, ITT"}, "[17]": {"conditions": "30 mg/day, diabetic gastroparesis population"}, "[18]": {"conditions": "30 mg/day, idiopathic gastroparesis population"}, "[19]": {"conditions": "30 mg/day, responders for at least 6 of 12 weeks, ITT"}},
  "note": "Read-outs that look alike come from different tables or passages of the source.",
  "data": [
    {"substance": "1-isopropyl-2-oxo-1,2-dihydroquinoline-3-carboxylic acid {(1S,3R,5R)-8-[(R)-2-hydroxy-3-(methanesulfonyl-methyl-amino)propyl]-8-azabicyclo[3.2.1]oct-3-yl}amide [Velusetrag]", "values": [
      {"measurement": "LS Mean change from baseline, GRS Summary Score 1 (Factor 1)", "setting": "[1]; 15 mg/day, Week 8, idiopathic gastroparesis population", "value": "−1.3 (0.20) points"},
      {"measurement": "LS Mean Difference vs placebo, GRS Summary Score 1 (Factor 1)", "setting": "[1]; 15 mg/day, Week 12, ITT", "value": "−0.2 (0.2) points"},
      {"measurement": "LS Mean change from baseline, GRS Summary Score 1 (Factor 1)", "setting": "[1]; 15 mg/day, Week 12, ITT", "value": "−1.3 (0.15) points"},
      {"measurement": "LS Mean Difference vs placebo, GRS Summary Score 1 (Factor 1)", "setting": "[1]; [3]", "value": 0.0, "unit": "points"},
      {"measurement": "LS Mean change from baseline, GRS Summary Score 1 (Factor 1)", "setting": "[1]; [3]", "value": "−1.3", "unit": "points"},
      {"measurement": "LS Mean Difference vs placebo, GRS Summary Score 1 (Factor 1)", "setting": "[1]; [4]", "value": "−0.4 (0.29) points"},
      {"measurement": "LS Mean change from baseline, GRS Summary Score 1 (Factor 1)", "setting": "[1]; [4]", "value": "−1.4 (0.22) points"},
      {"measurement": "LS Mean Difference vs placebo, GRS Summary Score 1 (Factor 1)", "setting": "[1]; 30 mg/day, Week 4, ITT", "value": "0.0 (0.17) points"},
      {"measurement": "LS Mean change from baseline, GRS Summary Score 1 (Factor 1)", "setting": "[1]; 30 mg/day, Week 4, ITT", "value": "−0.8 (0.12) points"},
      {"measurement": "LS Mean Difference vs placebo, GRS Summary Score 1 (Factor 1)", "setting": "[1]; [5]", "value": 0.1, "unit": "points"},
      {"measurement": "LS Mean change from baseline, GRS Summary Score 1 (Factor 1)", "setting": "[1]; [5]", "value": "−0.8", "unit": "points"},
      {"measurement": "LS Mean Difference vs placebo, GRS Summary Score 1 (Factor 1)", "setting": "[1]; [6]", "value": "−0.0 (0.23) points"},
      {"measurement": "LS Mean change from baseline, GRS Summary Score 1 (Factor 1)", "setting": "[1]; [6]", "value": "−0.8 (0.16) points"},
      {"measurement": "LS Mean Difference vs placebo, GRS Summary Score 1 (Factor 1)", "setting": "[1]; 30 mg/day, Week 8, ITT", "value": "−0.1 (0.18) points"},
      {"measurement": "LS Mean change from baseline, GRS Summary Score 1 (Factor 1)", "setting": "[1]; 30 mg/day, Week 8, ITT", "value": "−1.1 (0.13) points"},
      {"measurement": "LS Mean Difference vs placebo, GRS Summary Score 1 (Factor 1)", "setting": "[1]; [7]", "value": 0.0, "unit": "points"},
      {"measurement": "LS Mean change from baseline, GRS Summary Score 1 (Factor 1)", "setting": "[1]; [7]", "value": "−1.2", "unit": "points"},
      {"measurement": "LS Mean Difference vs placebo, GRS Summary Score 1 (Factor 1)", "setting": "[1]; [8]", "value": "−0.2 (0.26) points"},
      {"measurement": "LS Mean change from baseline, GRS Summary Score 1 (Factor 1)", "setting": "[1]; [8]", "value": "−1.1 (0.18) points"},
      {"measurement": "LS Mean Difference vs placebo, GRS Summary Score 1 (Factor 1)", "setting": "[1]; 30 mg/day, Week 12, ITT", "value": "−0.1 (0.2) points"},
      {"measurement": "LS Mean change from baseline, GRS Summary Score 1 (Factor 1)", "setting": "[1]; 30 mg/day, Week 12, ITT", "value": "−1.2 (0.14) points"},
      {"measurement": "LS Mean Difference vs placebo, GRS Summary Score 1 (Factor 1)", "setting": "[1]; [9]", "value": "−0.1", "unit": "points"},
      {"measurement": "LS Mean change from baseline, GRS Summary Score 1 (Factor 1)", "setting": "[1]; [9]", "value": "−1.3", "unit": "points"},
      {"measurement": "LS Mean Difference vs placebo, GRS Summary Score 1 (Factor 1)", "setting": "[1]; [10]", "value": "−0.1 (0.28) points"},
      {"measurement": "LS Mean change from baseline, GRS Summary Score 1 (Factor 1)", "setting": "[1]; [10]", "value": "−1.1 (0.19) points"},
      {"measurement": "LS Proportion of positive responders; Summary Score 1", "setting": "[2]; [11]", "value": 0.54},
      {"measurement": "LS Proportion of positive responders; Summary Score 2", "setting": "[2]; [11]", "value": 0.57},
      {"measurement": "Responders, %; Summary Score 1", "setting": "[2]; [11]", "value": "(55.9) %"},
      {"measurement": "Responders, %; Summary Score 2", "setting": "[2]; [11]", "value": "(57.6) %"},
      {"measurement": "Responders, n; Summary Score 1", "setting": "[2]; [11]", "value": 33},
      {"measurement": "Responders, n; Summary Score 2", "setting": "[2]; [11]", "value": 34},
      {"measurement": "LS Proportion of positive responders; Summary Score 1", "setting": "[2]; [12]", "value": 0.45},
      {"measurement": "LS Proportion of positive responders; Summary Score 2", "setting": "[2]; [12]", "value": 0.43},
      {"measurement": "Responders, %; Summary Score 1", "setting": "[2]; [12]", "value": "(45.3) %"},
      {"measurement": "Responders, %; Summary Score 2", "setting": "[2]; [12]", "value": "(43.4) %"},
      {"measurement": "Responders, n; Summary Score 1", "setting": "[2]; [12]", "value": 24},
      {"measurement": "Responders, n; Summary Score 2", "setting": "[2]; [12]", "value": 23},
      {"measurement": "LS Proportion of positive responders; Summary Score 1", "setting": "[2]; [13]", "value": 0.44},
      {"measurement": "LS Proportion of positive responders; Summary Score 2", "setting": "[2]; [13]", "value": 0.31},
      {"measurement": "Responders, %; Summary Score 1", "setting": "[2]; [13]", "value": "(44.8) %"},
      {"measurement": "Responders, %; Summary Score 2", "setting": "[2]; [13]", "value": "(34.5) %"},
      {"measurement": "Responders, n; Summary Score 1", "setting": "[2]; [13]", "value": 13},
      {"measurement": "Responders, n; Summary Score 2", "setting": "[2]; [13]", "value": 10},
      {"measurement": "LS Proportion of positive responders; Summary Score 1", "setting": "[2]; [14]", "value": 0.48},
      {"measurement": "LS Proportion of positive responders; Summary Score 2", "setting": "[2]; [14]", "value": 0.58},
      {"measurement": "Responders, %; Summary Score 1", "setting": "[2]; [14]", "value": "(45.8) %"},
      {"measurement": "Responders, %; Summary Score 2", "setting": "[2]; [14]", "value": "(54.2) %"},
      {"measurement": "Responders, n; Summary Score 1", "setting": "[2]; [14]", "value": 11},
      {"measurement": "Responders, n; Summary Score 2", "setting": "[2]; [14]", "value": 13},
      {"measurement": "LS Proportion of positive responders; Summary Score 1", "setting": "[2]; [15]", "value": 0.49},
      {"measurement": "LS Proportion of positive responders; Summary Score 2", "setting": "[2]; [15]", "value": 0.51},
      {"measurement": "Responders, %; Summary Score 1", "setting": "[2]; [15]", "value": "(49.1) %"},
      {"measurement": "Responders, %; Summary Score 2", "setting": "[2]; [15]", "value": "(50.9) %"},
      {"measurement": "Responders, n; Summary Score 1", "setting": "[2]; [15]", "value": 26},
      {"measurement": "Responders, n; Summary Score 2", "setting": "[2]; [15]", "value": 27},
      {"measurement": "LS Proportion of positive responders; Summary Score 1", "setting": "[2]; [16]", "value": 0.44},
      {"measurement": "LS Proportion of positive responders; Summary Score 2", "setting": "[2]; [16]", "value": 0.45},
      {"measurement": "Responders, %; Summary Score 1", "setting": "[2]; [16]", "value": "(47.4) %"},
      {"measurement": "Responders, %; Summary Score 2", "setting": "[2]; [16]", "value": "(49.1) %"},
      {"measurement": "Responders, n; Summary Score 1", "setting": "[2]; [16]", "value": 27},
      {"measurement": "Responders, n; Summary Score 2", "setting": "[2]; [16]", "value": 28},
      {"measurement": "LS Proportion of positive responders; Summary Score 1", "setting": "[2]; [17]", "value": 0.48},
      {"measurement": "LS Proportion of positive responders; Summary Score 2", "setting": "[2]; [17]", "value": 0.45},
      {"measurement": "Responders, %; Summary Score 1", "setting": "[2]; [17]", "value": "(50.0) %"},
      {"measurement": "Responders, %; Summary Score 2", "setting": "[2]; [17]", "value": "(50.0) %"},
      {"measurement": "Responders, n; Summary Score 1", "setting": "[2]; [17]", "value": 13},
      {"measurement": "Responders, n; Summary Score 2", "setting": "[2]; [17]", "value": 13},
      {"measurement": "LS Proportion of positive responders; Summary Score 1", "setting": "[2]; [18]", "value": 0.41},
      {"measurement": "LS Proportion of positive responders; Summary Score 2", "setting": "[2]; [18]", "value": 0.45},
      {"measurement": "Responders, %; Summary Score 1", "setting": "[2]; [18]", "value": "(45.2) %"},
      {"measurement": "Responders, %; Summary Score 2", "setting": "[2]; [18]", "value": "(48.4) %"},
      {"measurement": "Responders, n; Summary Score 1", "setting": "[2]; [18]", "value": 14},
      {"measurement": "Responders, n; Summary Score 2", "setting": "[2]; [18]", "value": 15},
      {"measurement": "LS Proportion of positive responders; Summary Score 1", "setting": "[2]; [19]", "value": 0.44},
      {"measurement": "LS Proportion of positive responders; Summary Score 2", "setting": "[2]; [19]", "value": 0.47},
      {"measurement": "Responders, %; Summary Score 1", "setting": "[2]; [19]", "value": "(47.4) %"},
      {"measurement": "Responders, %; Summary Score 2", "setting": "[2]; [19]", "value": "(50.9) %"},
      {"measurement": "Responders, n; Summary Score 1", "setting": "[2]; [19]", "value": 27},
      {"measurement": "Responders, n; Summary Score 2", "setting": "[2]; [19]", "value": 29}
    ]}
  ]
}
